Data published in patent US20210115000A1, “NILE RED DERIVATIVES FOR IMPROVED RATIOMETRIC IMAGING FOR NERVE SPECIFIC CONTRAST” (Oregon Health & Sciences University, priority 2018, published 2021).
“Also recorded” adds a separate entry of the source.

What was measured:
[1] = system: sciatic nerve or brachial plexus nerve sites (adipose, nerve, muscle tissue); assay: In vivo imaging following direct/topical administration on rodent nerve sites; set-up: species or system male CD-1 mice; conditions: for nerve accumulation: summary of in vitro, ex vivo and in vivo characterization
Source text: In vivo images were acquired using a previously published, custom-built small animal fluorescence imaging system, described briefly here.^27 Fluorescent images were obtained using a Qimaging EXi Blue monochrome camera (Surrey, British Columbia, CA) with a removable Bayer mask for collection of co-registered color and fluorescence images. A Photofluor II broad band light source (89 North) was expanded onto the surgical field through a liquid light guide and used unfiltered for white light illumination. Nile Red and NR5 were excitated using a 545 t 12.5 nm bandpass filter, while fluorescence emission images were collected with a 605±35 nm bandpass filter. Oxazine 4 (Exciton, West Chester, Ohio) was used for nerve and adipose co-staining and ratiometic imaging studies. Oxazine 4 was excited using a 620±30 nm bandpass filter, while fluorescence emission images were collected through a 700±37.5 nm bandpass filter. Approval for the use of animals in the study was obtained from the Institutional Animal Care and Use Committee (IACUC) at Oregon Health and Science University (OHSU). In vivo staining studies were carried out on male CD-1 mice using an optimized direct/topical administration protocol.^2 Staining was performed concurrently on no more than two nerve sites (sciatic nerve or brachial plexus) per mouse. Nile Red and all Nile Red derivatives were formulated in a previously published co-solvent formulation (10% DMSO, 5% Kolliphor, 63.75% serum and 21.25% PBS^14) at a final concentration of 100 μM. Each formulated fluorophore was incubated for 5 minutes on the nerve site (n=4 nerve sites/fluorophore), followed by 9 short flushes with PBS. The nerve site was then incubated with blank co-solvent not containing fluorophore for 5 minutes, followed again by 9 short flushes with PBS.

[2] = system: U2OS human osteosarcoma cell line; assay: Nile Red derivative cell staining and imaging, fixed and live cells; format: cell-based; conditions: 1 μM; for fluorescence intensity in fixed cells: U2OS fixed with 4% PFA, imaged without washing; for fluorescence intensity in fixed cells / fluorescence intensity in live cells without washing / structures observed in live cells without washing: 5 min; for fluorescence intensity in live cells without washing / structures observed in live cells without washing: U2OS live, imaged in staining solution
Protocol: The U2OS human osteosarcoma cell line was cultured in Dulbecco's Modified Eagle Medium (DMEM, Thermo Fisher Scientific, Waltham, Mass.) with 10% fetal bovine serum (FBS, VWR, Radnor, Pa.) and 1% Penicillin/Steptomycin 100× (Thermo Fisher Scientific) at 37° C. in 5% CO2. For live cell imaging studies, Fluorobrite DMEM media (Thermo Fisher Scientific) was used in place of DMEM. For imaging studies, cells were grown in 96-well glass bottom plates (Cellvis, Mountain View, Calif.) for 48 hours, with a final confluence of <80%. Nile Red and its derivatives were prepared at 1-10 mM stock concentration in DMSO and diluted into media or buffer for cell staining and imaging studies.
Cell staining studies were completed on fixed and live U2OS cells using Nile Red and each synthesized Nile Red derivative described as follows. For fixed cell staining, cells were washed once with 1× phosphate buffered saline (PBS), then fixed with 4% paraformaldehyde (PFA) for 20 minutes at room temperature. The PFA was removed and each well was washed three times for 5 mins per wash (3×5 mins) with 1×PBS. The Nile Red fluorophores were diluted into 1×PBS to a final concentration of 1 μM, incubated for 5 minutes with the cells, and images were collected without washing. Live cell staining was completed using two methods. First, cells were washed once with Fluorobrite DMEM. The Nile Red fluorophore solution was prepared in Fluorobrite DMEM by diluting to a final concentration of 1 μM for staining, where cells were stained for 5 minutes. The fluorophore containing media was removed and the cells were fixed for 20 minutes using 4% PFA. Cells were then washed 3×5 mins with Fluorobrite DMEM prior to imaging. Second, cells were washed with Fluorobrite DMEM without FBS once for 5 minutes. Nile Red fluorophore solutions were prepared in Fluorobrite without FBS at 1 μM final concentration for cell staining. The cells were stained with the prepared solution for 5 minutes and imaged in the staining solution. All images were collected at their ideal exposure times to permit visualization of stained intracellular structures.
All ex vivo and cellular fluorescence and white light images were collected using a Zeiss AxioObserver inverted fluorescence microscope (Carl Zeiss, Oberkochen, Germany). All cell images were collected at 40× magnification and all tissue section images were collected at 10× magnification. Fluorescence excitation was completed using a Photofluor II broad band light source (89 North, Burlington, Vt.) filtered with a 545±12.5 nm bandpass excitation filter. Fluorescence images were collected using a 605±35 nm bandpass emission filter and a AxioCam 506 monochromo camera (Zeiss). All Filters were Purchased from Chroma Technologies (Bellows Falls, Vt.).

[3] = 100 μM, immediately following direct administration
[4] = 30 minutes post direct administration
[5] = immediately following direct administration

| Structure (SMILES) | tissue specific fluorescence intensity [1, 3] | tissue specific fluorescence intensity ([1]; 30 minutes after direct administration) | adipose to muscle contrast [1, 4] | adipose to nerve contrast [1, 4] | adipose to muscle ratio [1, 5] | adipose to nerve ratio [1, 5] | nerve accumulation [1] | fluorescence intensity in fixed cells [2] | fluorescence intensity in live cells without washing [2] | structures observed in live cells without washing [2] | tissue-specific contrast, adipose signal ([1]; out to 120 minutes after direct administration) | fluorescence intensity in both the fixed and live in vitro imaging studies ([2]; U2OS) |
| --- | --- | --- | --- | --- | --- | --- | --- | --- | --- | --- | --- | --- |
| CCN(CC)c1ccc2nc3c4ccccc4c(=O)cc-3oc2c1 [Nile Red] | highest fluorescence signal compared to the other Nile Red derivatives; also recorded: strong fluorescence intensity | decrease in adipose, nerve and muscle fluorescence | greatest | decreased | greatest adipose to muscle contrast | increased contrast over control autofluorescence with similar adipose to nerve contrast | some nerve accumulation | bright | brightest overall | Prominent lipid droplet like structures | – | – |
| CCN(CC)c1ccc2nc3c4ccc(-c5ccc(C#N)cc5)cc4c(=O)cc-3oc2c1 [NR5, 4-(9-(diethylamino)-5-oxo-5H-benzo[a]phenoxazin-3-yl)benzonitrile] | highest fluorescence signal compared to the other Nile Red derivatives; also recorded: highest fluorescence intensity in the adipose, nerve and muscle tissues of the synthesized Nile Red derivatives | – | – | higher adipose-to-nerve contrast compared to Nile Red; also recorded: increased | lower than Nile Red, adipose to muscle contrast was similar | increased contrast over control autofluorescence with similar adipose to nerve contrast | minimal nerve accumulation | bright | brightest of the synthesized derivatives | Prominent lipid droplet like structures | adipose signal was maintained throughout the 120 minute imaging time | brightest fluorescence intensity of the Nile Red derivatives |
